Experimental findings from US20050136040A1, “Control of gene expression using a complex of an oligonucleotide and a regulatory peptide” (Imperial College Innovations Limited, priority 2001, published 2005) are described below.

[5FU] = 5-fluoro-deoxyuracil base

In data set [1] the test system is androgen receptor gene. Kind of data set: RT-PCR of androgen receptor mRNA, LNCap cells treated with ARP-L218 and cyproterone acetate. The data set is classed as cell-based, human. The settings on record: 3 days. As to the method: (§1) RT-PCR analysis of androgen receptor mRNA. After ethidium bromide staining the quantity of electrophoresed amplicons was determined in arbitrary units using a Labworks image reader.
ARP-L218 was prepared in phosphate buffer saline (PBS), 0.2 μm syringed filtered and used on day of test set-up.
LNCap cells were transfected with ARP-L218 using lipofectamine2000 (cationic activated dendrimer, InVitrogen life technologies) with/without antagonist. Various amounts of ARP-L218 were mixed with a fixed amount of lipofectamine2000 (3 μl) in a total volume of 100 μl serum free medium without antibiotics (OptiMEM). After 20 mins incubation at room temperature, the transfection mixture was added to cells at 70% confluency and cells were incubated for 3 days.
(§2) RNA was extracted and RT-PCR analysis of AR mRNA levels conducted as described above.

Data set [2] relates to Prostate specific antigens (PSA) protein levels. Kind of data set: Total PSA in LNCap cell supernatants, chemiluminescent immunometric assay. In kind it is cell-based, human. The settings on record: LNCap supernatant, 3 days. As to the method: Cells were incubated in the presence of R1881 for 3 days. PSA levels in the supernatants were measure by ELISA. Each column represent total prostate specific antigen (PSA).
Therefore, using the protocols described in Example 8 ARP-L218 was transfected into LNCap cells (GET/LNC/W39/P6) with Lipofectamine 2000 (InVitrogen) with or without R1881 (Perkin Elmer), a synthetic androgen, for 3 days, after which the supernatant were harvested for quantitation of total PSA protein at the Pathology Centre, Hammersrnith Hospital, London, U.K.
PSA measurements were carried out by a chemiluminescent labelled immunometric assay using an automated immunoassay analyser (Abbott Architect Immunoassay Analyser).

In the next data set the test system is PSA. Kind of data set: Secreted PSA by immunoassay in LnCap cells with or without R1881 (Example 2). In kind it is cell-based, human. The settings on record: LnCap control cells (no or irrelevant oligonucleotide-peptide fusion), 72 hours. As to the method: In an example, the prostate cancer cell line LnCap is treated with the oligonucleotide-peptide fusion comprising a MAD1 or Sap18 peptide as described in Example 1. Transfected cells are optionally identified and/or isolated (for example using a GFP marker and FACS techniques) and are assayed for androgen receptor gene expression as well as for the classic prostate cancer marker PSA. For example, GFP-positive, FACS sorted cells were cultured in the presence or absence of the AR agonist R1881. After 72 hours, culture media were collected and the amount of the androgen-regulated protein PSA determined by immunoassay. Addition of R1881 results in an approximately 25-fold increase in levels of secreted PSA in control cells (with no oligonucleotide-peptide fusion, or an irrelevant oligonucleotide-peptide fusion).

Data set [3] relates to androgen receptor gene. Kind of data set: RT-PCR of androgen receptor mRNA, LNCap cells treated with ARP-L218 and R1881. In kind it is cell-based, human. The settings on record: 3 days; for AR mRNA Percentage of control: vs PBS treated control. As to the method:
as §1
The effect of ARP-L218 on androgen receptor gene expression with and without a synthetic androgen (R1881) was measured using the protocol outlined in the above section.
ARP-L218 was prepared in phosphate buffer saline (PBS), 0.2 μm syringed filtered and used on day of test set-up. R1881 (synthetic androgen) was purchased from Perkin Elmer, Catalogue number NLP005005MG.
LNCap cells were transfected with ARP-L218 using lipofectamine2000 (cationic activated dendrimer, InVitrogen life technologies) with/without agonist. Various amounts of ARP-L218 were mixed with a fixed amount of lipofectamine2000 (3 μl) in a total volume of 100 μl serum free medium without antibiotics (OptiMEM). After 20 mins incubation at room temperature, the transfection mixture was added to cells at 70% confluency and cells were incubated for 3 days.
as §2

Data set [4] deals with interferon stimulated response element (IRE) of the human 6-16 gene. Briefly: Interferon-induced EGFP expression by FACS in modified HT1080 cells (C8). In kind it is cell-based. The settings on record: for Interferon-induced GFP expression: +INF 300 units/ml for one day. As to the method:
Cells habouring EGFP under the control of the interferon stimulated response element (ISRE) of the human 6-16 gene were transiently transfected with different compounds. Cells were then treated with 300 units/ml of IFN for one day and analysed by FACS for the GFP expression. • a) Parental cell line, no treatment • b) Cells expressing the stably transfected construct (C8), no treatment • c) C8 treated with interferon (+INF) • d) C8 transfected with 500 pm TFO, +INF • e) C8 specific TFO 1000 pM, +INF • f) C8, GeneICE1 500 pM, +INF • g) C8, GeneICE 2 500 pM, +INF • h) C8, unspecific control TFO 500 pM, +INF • i) C8, unspecific control TFO 1000 pM, +INF
These cells have a stably incorporated gene expressing EGFP under the control of the interferon stimulated response element (IRE) of the human 6-16 gene.
For the following data, cells were transiently transfected with different compounds using standard lipofectamine protocols. Cells were then treated with 300 units/ml of interferon (INF) for one day and analysed by FACS for the GFP expression.

On to `CC(=O)O[C@]1(C(C)=O)CC[C@H]2[C@@H]3C=C(Cl)C4=CC(=O)[C@@H]5C[C@@H]5[C@]4(C)[C@H]3CC[C@@]21C` [Cyproterone Acetate, Cyproterone acetate], for which, in the data set with androgen receptor gene [1], the “androgen receptor gene expression levels (in words)” value is listed as “can act to reduce AR gene expression”. Further, the AR band quantitation with androgen receptor gene [1] (Cyproterone Acetate 0.1 nM) is on record as 2357; in the data set on androgen receptor gene [1] (Cyproterone Acetate 10 nM), 2401; in the data set with androgen receptor gene [1] (Cyproterone Acetate 1 uM) it was 1868; in the data set with androgen receptor gene [1] (Cyproterone Acetate 10 uM), 1568. Further, the “AR mRNA % of control” value in the data set with androgen receptor gene [1] (Cyproterone Acetate 0.1 nM) is reported as 54.0%; in the data set with androgen receptor gene [1] (Cyproterone Acetate 10 nM), 51.5%; in the data set with androgen receptor gene [1] (Cyproterone Acetate 1 uM), 47.8%.

For `C[C@]1(O)CC[C@H]2[C@@H]3CCC4=CC(=O)CCC4=C3C=C[C@@]21C` [R1881], the “effect on PSA levels (in words)” value in data set [2] was “show an increase in PSA levels”. Moreover, the “Total PSA” value is 372 ng/mL in data set [2] (R1881 0.01 nM) and 1980 ng/mL in data set [2] (R1881 100 nM). In the data set on PSA, the “increase in levels of secreted PSA on addition of R1881” value was “approximately 25 fold”. For the same compound, in the data set with androgen receptor gene [3], the “androgen receptor gene expression levels (in words)” value is “can act to reduce AR gene expression”. For the same compound, the “AR Ratio/beta-actin” value with androgen receptor gene [3] (R1881 0.01 nM) is 0.237; in the data set on androgen receptor gene [3] (R1881 1 nM), 0.103; in the data set with androgen receptor gene [3] (R1881 100 nM), 0.116; with androgen receptor gene [3] (R1881 1 uM), 0.165. In addition, the AR band quantitation was 2083 in the data set with androgen receptor gene [3] (R1881 0.01 nM), 1471 with androgen receptor gene [3] (R1881 1 nM), 1455 in the data set with androgen receptor gene [3] (R1881 100 nM) and 1388 in the data set on androgen receptor gene [3] (R1881 1 uM). Further, the “AR band quantitation Average” value in the data set on androgen receptor gene [3] (R1881 0.01 nM) is recorded as 2083; in the data set with androgen receptor gene [3] (R1881 1 nM), 1471; in the data set on androgen receptor gene [3] (R1881 100 nM), 1455; in the data set on androgen receptor gene [3] (R1881 1 uM), 1388. Also, the “AR mRNA Percentage of control” value worked out at 71.73% in the data set with androgen receptor gene [3] (R1881 0.01 nM), 31.29% in the data set with androgen receptor gene [3] (R1881 1 nM), 35.17% with androgen receptor gene [3] (R1881 100 nM) and 49.92% with androgen receptor gene [3] (R1881 1 uM).

Take “specific TFO: IRE TFO (5′) GGGUGGTGGGGTTGTGTT (3′), U = 5-fluro-deoxyuracil, without peptide (DNA, [5FU] at 4, backbone not given here)”: the “Interferon-induced GFP expression” value was determined as 53% in data set [4] (500 pM) and 63% in data set [4] (1000 pM). In addition, the “average repression of INF induced GFP expression” value in data set [4] (+INF, average over the conditions of Table 4) is 42%.
